From publication PMC7533260, “Design and tests of prospective property predictions for novel antimalarial 2-aminopropylaminoquinolones” (Journal of Computer-Aided Molecular Design, 2020)

Target: T1, s-PfDHODH (Plasmodium falciparum, UniProt Q08210)
T1 sequence (Q08210 158-569 limits assumed): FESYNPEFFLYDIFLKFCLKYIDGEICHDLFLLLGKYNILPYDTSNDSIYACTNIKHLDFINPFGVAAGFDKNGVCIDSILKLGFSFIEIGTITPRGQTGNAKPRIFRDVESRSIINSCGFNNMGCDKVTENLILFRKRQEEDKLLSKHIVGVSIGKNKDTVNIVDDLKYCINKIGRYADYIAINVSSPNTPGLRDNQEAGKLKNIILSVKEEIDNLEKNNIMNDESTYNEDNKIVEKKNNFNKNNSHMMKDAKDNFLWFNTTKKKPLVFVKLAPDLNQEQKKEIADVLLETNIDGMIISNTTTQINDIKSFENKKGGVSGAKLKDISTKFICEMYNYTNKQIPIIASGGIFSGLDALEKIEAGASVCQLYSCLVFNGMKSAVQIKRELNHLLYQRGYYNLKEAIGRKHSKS
Experiment: Literature inhibition data for soluble recombinant PfDHODH (s-PfDHODH), dodecylubiquinone as substrate
Format: biochemical
Details: not given
Description: Data on PfDHODH inhibition were collected from the literature for a structurally diverse group of compounds. These included triazolopyrimidines, diphenylureas, and 2-cyano-3-hydroxy acrylanilides, among others. Quantitative data were not available for inhibition of the intact enzyme, which is bound to the mitochondrial membrane by its hydrophobic N-terminus in vivo [16]. […] The very low solubility of CoQ-10 limits its utility in vitro, so an artificial ubiquinone (dodecylubiquinone [DQ]) is usually used as substrate instead.
The IC50 data for these 89 compounds were converted to inhibition constants (Ki’s) by assuming competitive inhibition against DQ and applying the method described by Cheng and Prusoff. Two artificial neural network ensemble (ANNE) regression models were constructed (henceforth referred to as Model A and Model B) using ADMET Modeler™ module of ADMET Predictor® [18]. The models were built on distinct 20% hold-out test sets (see Supplementary Methods for details).

SMILES | Ki [nM]
O=C(Nc1ccc(Cl)cc1Cl)c1ccc2ccccc2c1 [Compound B01] | 30
O=C(Nc1ccccc1F)c1ccc2ccccc2c1 [Compound B03] | 200
Cc1c(C(=O)Nc2cccc(Br)c2)cccc1[N+](=O)[O-] [Compound B04] | 20
Cc1c(C(=O)Nc2ccc(F)c(Cl)c2)cccc1[N+](=O)[O-] [Compound B05] | 40
Cc1c(C(=O)Nc2ccc(F)c(F)c2)cccc1[N+](=O)[O-] [Compound B07] | 140
Cc1c(C(=O)Nc2cccc3ccccc23)cccc1[N+](=O)[O-] [Compound B08] | 30
Cc1c(C(=O)Nc2ccc(Cl)c(Cl)c2)cccc1[N+](=O)[O-] [Compound B09] | 40
Cc1c(C(=O)Nc2cccc(C(F)(F)F)c2)cccc1[N+](=O)[O-] [Compound B10] | 40
O=C(Nc1ccccc1C(F)(F)F)Nc1cccc2ccccc12 [Compound B11] | 180
COc1ccccc1NC(=O)Nc1cccc2ccccc12 [Compound B12] | 120
O=C(Nc1ccc(Cl)cc1)Nc1cccc2cccnc12 [Compound B13] | 540
C/C(O)=C(/C#N)C(=O)Nc1ccc(-c2ccccc2)cc1 [Compound D10] | 3000
C/C(O)=C(/C#N)C(=O)Nc1ccc(-c2c(Cl)cccc2Cl)cc1Cl [Compound D21] | 1200
C/C(O)=C(\C#N)C(=O)Nc1ccc(-c2cccc(Cl)c2)cc1C(F)(F)F [Compound D23] | 6800
C/C(O)=C(/C#N)C(=O)Nc1ccc(-c2ccccc2Cl)c(Cl)c1 [Compound D24] | 20500
C/C(O)=C(/C#N)C(=O)Nc1ccc(-c2ccccc2Cl)cc1 [Compound D27] | 5600
CCOc1cccc(-c2ccc(NC(=O)/C(C#N)=C(\C)O)cc2)c1 [Compound D29] | 21500
Cc1cc(Nc2ccc(C#N)c(C(F)(F)F)c2)n2ncnc2n1 [Compound G45] | 1960
Cc1cc(Nc2ccc(C(F)(F)F)c(F)c2)n2ncnc2n1 [Compound G47] | 30
CCCNC(=O)c1ccc(-n2c(C)cc3ccccc32)s1 [Compound P03] | 20
CCCNC(=O)c1ccc(-n2ccc3ccccc32)s1 [Compound P06] | 200
CCOC(=O)C(=CNc1ccc2sc3ccccc3c2c1)C(=O)OCC [He05] | 20
CCOC(=O)/C(C#N)=C\Nc1ccc2c(c1)c1ccccc1n2CC [He06] | 50
CCOC(=O)C(=CNc1ccc(C)cc1)C(=O)OCC [He08] | 4600
CCOC(=O)C(=CNc1ccccc1C)C(=O)OCC [He09] | 39700
CCOC(=O)C(=CNc1ccc2[nH]cnc2c1)C(=O)OCC [He10] | 40200
CCOC(=O)C(=CNc1cccc(-c2ccccc2)c1)C(=O)OCC [He14] | 10000
Cc1cc(Nc2ccc(C(N)=O)cc2)n2ncnc2n1 [Tz13] | 80000
Cc1cc(Nc2ccccc2)n2ncnc2n1 [Tz19] | 40000
Cc1cc(Nc2ccc3cc4ccccc4cc3c2)n2ncnc2n1 [Tz20] | 20

Same assay, conditions: converted from literature IC50 assuming competitive inhibition against DQ (Cheng and Prusoff); read-out: PfDHODH Ki

SMILES | Ki [nM]
Cc1c(C(=O)Nc2cc(Cl)cc(Cl)c2)cccc1[N+](=O)[O-] [Compound B06] | 10
N#C/C(C(=O)Nc1ccc(C(F)(F)F)cc1)=C(/O)C1CC1 [Compound D04] | 11000
C/C(O)=C(/C#N)C(=O)Nc1ccc(-c2ccccc2Cl)cc1Cl [Compound D17] | 480
C/C(O)=C(\C#N)C(=O)Nc1ccc(-c2ccccc2Cl)cc1C(F)(F)F [Compound D18] | 730
COc1ccccc1-c1ccc(NC(=O)/C(C#N)=C(\C)O)c(Cl)c1 [Compound D19] | 1000
C/C(O)=C(/C#N)C(=O)Nc1ccc(-c2cccc(Cl)c2Cl)cc1Cl [Compound D20] | 1200
C/C(O)=C(/C#N)C(=O)Nc1ccc(-c2cccc(Cl)c2)cc1Cl [Compound D22] | 5800
C/C(O)=C(/C#N)C(=O)Nc1ccc(-c2cccc(Cl)c2)c(Cl)c1 [Compound D25] | 28000
C/C(O)=C(/C#N)C(=O)Nc1ccc(-c2cccc(Cl)c2Cl)cc1 [Compound D26] | 3200
C/C(O)=C(/C#N)C(=O)Nc1ccc(-c2ccccc2)cc1Cl [Compound D28] | 6000
Cc1cc(Nc2cccc(F)c2)n2ncnc2n1 [Compound G13] | 3680
Cc1cc(Nc2cccc(Cl)c2)n2ncnc2n1 [Compound G14] | 560
Cc1cccc(Nc2cc(C)nc3ncnn23)c1 [Compound G15] | 1960
Cc1cc(Nc2cccc(C(F)(F)F)c2)n2ncnc2n1 [Compound G16] | 5600
Cc1cc(Nc2ccc(F)cc2)n2ncnc2n1 [Compound G17] | 7600
Cc1cc(Nc2ccc(Cl)cc2)n2ncnc2n1 [Compound G18] | 640
Cc1cc(Nc2ccc(Br)cc2)n2ncnc2n1 [Compound G19] | 310
Cc1ccc(Nc2cc(C)nc3ncnn23)cc1 [Compound G20] | 1680
COc1ccc(Nc2cc(C)nc3ncnn23)cc1 [Compound G22] | 1840
Cc1cc(Nc2ccc(OC(F)(F)F)cc2)n2ncnc2n1 [Compound G23] | 480
Cc1cc(Nc2ccc(OC(F)F)cc2)n2ncnc2n1 [Compound G24] | 1120
Cc1cc(Nc2ccc([N+](=O)[O-])cc2)n2ncnc2n1 [Compound G25] | 1720
Cc1cc(Nc2ccc(-c3ccccc3)cc2)n2ncnc2n1 [Compound G26] | 2120
Cc1cc(Nc2ccc(Cc3ccccc3)cc2)n2ncnc2n1 [Compound G27] | 880
Cc1cc(Nc2ccc(F)c(F)c2F)n2ncnc2n1 [Compound G31] | 11600
Cc1cc(Nc2cc(F)c(F)cc2F)n2ncnc2n1 [Compound G32] | 6800

SMILES | Ki [nM]
Cc1ccc(Nc2cc(C)nc3ncnn23)c(F)c1 [Compound G36] | 10800
Cc1cc(Nc2ccc(F)c(F)c2)n2ncnc2n1 [Compound G37] | 3200
Cc1cc(Nc2cc(F)cc(F)c2)n2ncnc2n1 [Compound G38] | 3760
Cc1cc(Nc2ccc(F)c(C)c2)n2ncnc2n1 [Compound G40] | 1840
Cc1cc(Nc2ccc(Cl)c(C(F)(F)F)c2)n2ncnc2n1 [Compound G41] | 320
Cc1cc(Nc2ccc(Br)c(C(F)(F)F)c2)n2ncnc2n1 [Compound G42] | 180
Cc1cc(Nc2ccc(C)c(C(F)(F)F)c2)n2ncnc2n1 [Compound G43] | 620
Cc1cc(Nc2ccc(C)c(C)c2)n2ncnc2n1 [Compound G44] | 140
Cc1cc(Nc2ccc(C)c(F)c2)n2ncnc2n1 [Compound G46] | 340
Cc1ccccc1/C=C/c1cc(O)c2ccccc2n1 [Compound P01] | 400
CCCCCC1CCCc2c1nc1ccccc1c2O (stereo not shown) [Compound P02] | 150
O=C(NC1CC1)c1ccc(N2CCSc3ccccc32)s1 [Compound P04] | 110
CCCNC(=O)c1ccc(-n2cnc3ccccc32)s1 [Compound P10] | 300
CCCNC(=O)c1ccc(-n2c(C)nc3ccccc32)s1 [Compound P11] | 70
CCOC(=O)C(=CNc1ccc2[nH]ncc2c1)C(=O)OCC [He07] | 3200
FC(F)(F)c1cc(Nc2ccc3ccccc3c2)n2ncnc2n1 [Tz08] | 80
CCc1cc(Nc2ccc3ccccc3c2)n2ncnc2n1 [Tz09] | 80
Cc1nc2ncnn2c(Nc2ccc3ccccc3c2)c1C [Tz10] | 60
Cc1cc(N(C)c2ccc3ccccc3c2)n2ncnc2n1 [Tz11] | 1200
Cc1cc(N(Cc2ccccc2)c2ccc3ccccc3c2)n2ncnc2n1 [Tz12] | 37200
Cc1cc(Nc2cnc3ccccc3c2)n2ncnc2n1 [Tz14] | 680
Cc1cc(Nc2ccc3ncccc3c2)n2ncnc2n1 [Tz15] | 480
Cc1cc(Nc2cc3ccccc3cc2O)n2ncnc2n1 [Tz16] | 130
Cc1cc(Nc2ccc3c(=O)cc(C)oc3c2)n2ncnc2n1 [Tz17] | 800
Cc1cc(Nc2cccc3ccccc23)n2ncnc2n1 [Tz18] | 18000

Target: T1, s-PfDHODH
Experiment: not given
Design: method as in earlier work
Details: literature data used to construct QSAR models; cited from earlier work

SMILES | IC50 [nM]
N#C/C(C(=O)Nc1ccc(C(F)(F)F)cc1)=C(/O)C1CC1 [Compound D04] | 92500
C/C(O)=C(/C#N)C(=O)Nc1ccc(-c2ccccc2)cc1 [Compound D10] | 25700
C/C(O)=C(/C#N)C(=O)Nc1ccc(-c2ccccc2Cl)cc1Cl [Compound D17] | 4000
C/C(O)=C(\C#N)C(=O)Nc1ccc(-c2ccccc2Cl)cc1C(F)(F)F [Compound D18] | 6200
COc1ccccc1-c1ccc(NC(=O)/C(C#N)=C(\C)O)c(Cl)c1 [Compound D19] | 8600
C/C(O)=C(/C#N)C(=O)Nc1ccc(-c2cccc(Cl)c2Cl)cc1Cl [Compound D20] | 9900
C/C(O)=C(/C#N)C(=O)Nc1ccc(-c2c(Cl)cccc2Cl)cc1Cl [Compound D21] | 10200
C/C(O)=C(/C#N)C(=O)Nc1ccc(-c2cccc(Cl)c2)cc1Cl [Compound D22] | 49100
C/C(O)=C(\C#N)C(=O)Nc1ccc(-c2cccc(Cl)c2)cc1C(F)(F)F [Compound D23] | 57200
C/C(O)=C(/C#N)C(=O)Nc1ccc(-c2ccccc2Cl)c(Cl)c1 [Compound D24] | 165000
C/C(O)=C(/C#N)C(=O)Nc1ccc(-c2cccc(Cl)c2)c(Cl)c1 [Compound D25] | 237000
C/C(O)=C(/C#N)C(=O)Nc1ccc(-c2cccc(Cl)c2Cl)cc1 [Compound D26] | 27200
C/C(O)=C(/C#N)C(=O)Nc1ccc(-c2ccccc2Cl)cc1 [Compound D27] | 47400
C/C(O)=C(/C#N)C(=O)Nc1ccc(-c2ccccc2)cc1Cl [Compound D28] | 51100
CCOc1cccc(-c2ccc(NC(=O)/C(C#N)=C(\C)O)cc2)c1 [Compound D29] | 182000
Cc1cc(Nc2ccc(C(F)(F)F)c(F)c2)n2ncnc2n1 [Compound G47] | 80
